Measured values taken from PubChem BioAssay (NCI).
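Cultured in 96-well plates, cells were exposed to test compound for 48 hours across five concentrations. GI50 = concentration required for 50% inhibition of growth. TGI denotes the concentration required for complete inhibition of growth.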 Numbered stars: 1 amine (or outer) side, 2 acyl side, 3 side chain; on linkers, the order of the positions; unused ones are H or OH. Bridge positions count the residues as written; N and C are the ends. Square brackets hold non-standard residues; d marks the D form. Peptide text beside a SMILES is read from it. I, II: the chains in the order shown. Actinocin(1to9) = Cc1c2oc3c(C)ccc(C(=O)[*:2])c3nc-2c(C(=O)[*:1])c(N)c1=O; NMeV = CN[CH](C(=O)O)C(C)C; Sar = CNCC(=O)O

Key:
Test in all cases: NCI-60 cell line screen, 48 h
[1] = tested on: A498 renal
[2] = tested on: A549 NSCLC
[3] = tested on: HCT-116 colon
[4] = tested on: HT29 colon
[5] = tested on: LOX IMVI melanoma
[6] = tested on: OVCAR-5 ovarian
[7] = tested on: RXF 393 renal
[8] = tested on: SW-620 colon
[9] = tested on: MDA-N
[10] = tested on: UACC-257 melanoma

Compound	TGI [1] [µM]	TGI [2] [µM]	TGI [3] [µM]	TGI [4] [µM]	TGI [5] [µM]	TGI [6] [µM]	TGI [7] [µM]	TGI [8] [µM]	TGI [9] [µM]	TGI [10] [µM]	GI50 [1] [µM]	GI50 [2] [µM]	GI50 [3] [nM]	GI50 [4] [µM]	GI50 [5] [µM]	GI50 [6] [µM]	GI50 [7] [µM]	GI50 [8] [µM]	GI50 [10] [µM]
COC1=CC(=O)C2C(C1=O)[C@@H]1c3ccccc3OC[C@H]21 (stereo partly drawn)	> 100	> 100	> 100	> 100	> 100	> 100	> 100	> 100											
CCC(C)C1NC(=O)C(NC(=O)c2c3nc4c(C(=O)NC5C(=O)NC(C(C)C)C(=O)N6CCCC6C(=O)N(C)CC(=O)N(C)C(C(C)C)C(=O)OC5C)ccc(C)c4oc-3c(C)c(=O)c2N)C(C)OC(=O)C(C(C)C)N(C)C(=O)CN(C)C(=O)C2CCCN2C1=O (stereo not drawn) (I: TIP[Sar][NMeV] / II: TVP[Sar][NMeV]; ester I:1-I:C, II:1-II:C; linker I:N-II:N via Actinocin(1to9); configuration not given here)	0.00433	13.9	4.8			0.0132	0.0102		0.0244	0.0266									
N#Cc1c(Nc2ccccc2)[n+]([O-])c2ccc(Cl)cc2[n+]1[O-]	> 61.3	> 60.8	33.1	8.22	12.7	> 100	> 100	> 100	> 100	> 25.3									
CCCC(=O)Oc1cc(OC(=O)CCC)c2c(C)cc(=O)oc2c1	> 100	> 100	> 100	> 100	> 100	> 100		> 100	> 100	> 100									
CCN1CCC(O)(/C=C/c2ccc(Cl)cc2)C(C(=O)/C=C/c2ccc(Cl)cc2)C1 (stereo not drawn)	34.2	92.5	13.4	42.8	32.4	> 100		56.8		35.5									
O=c1cc(-c2cccc(Br)c2)[nH]c2cc3c(cc12)OCO3	13.8	25.2	13.3	> 83.3	17.4	> 100	14.3	> 100	2	> 100									
C/C=C1/C(=O)O[C@]23C=C[C@@H]4C(C(=O)OC)=CO[C@H](O[C@@H]12)[C@@H]43	1.58	11.1	1.97	9.06	0.725	7.69	1.29			2.31									
OCC1(CNc2cc(Cl)ncn2)CCC1	> 100	> 100	> 100	> 100	> 100	> 100		> 100	> 100	> 100									
CC(=O)c1cccc(NC(=O)/C(=N\NC(=S)NN)C2C(=O)Nc3ccccc3S2=O)c1 (stereo not drawn)	> 100	> 100	> 100	> 100	> 100	> 100	> 100	> 100	> 100	> 100									
COc1ccc(-c2c(C#N)cnc(N)c2-c2nc3cc(C)c(C)cc3[nH]2)cc1	63.6	72.4	> 100	> 100	> 100	> 100	20.4	> 100		> 100	10.7	6.54	4630	4.79	5.74	52.4	5.68	6.76	52
O=C(CSCC(=O)N/N=C/c1ccncc1)N/N=C/c1ccncc1	> 100	> 100	> 100	> 100	> 100	> 100	> 100	> 100		> 100									
CC(C)C(=O)CP(=O)(O)O	> 100	> 100	> 100	> 100	> 100	> 100	> 100	> 100	> 100	> 100									
O=C1Cc2c([nH]c3cc(Br)ccc23)-c2ccccc2N1	49	64.1	15.9	37.2	37	52.7	12.2	52.5	> 100										
Cc1c(C=C(C#N)C#N)c(=O)n(C)c(=O)n1C	> 100	> 100	> 100	> 100	> 100	> 100	> 100	> 100	> 100	> 100									
CCOC(=O)C1C(=O)c2cccc(OC)c2C2COC(=O)N12 (stereo not drawn)		> 100	> 100	> 100	> 100	> 100	> 100	> 100		> 100									
COc1ccc(/C=C/C(=O)/C=C(/C=C/c2ccc(OC)c(OC)c2OC)OB(F)F)c(OC)c1OC	10.2	> 100	3.33		2.4	> 100	2.92	4.34		> 100	3.35	3.44	399		0.721	3.3	1.35	0.58	9.33
O=C(NC(Cc1ccccc1)P(=O)(O)c1ccccc1)OCc1ccccc1 (stereo not drawn)		> 100	> 100	> 100	> 100	> 100		> 100	> 100	> 100									
Nc1nc2c(ncn2CC(CO)CC(c2ccccc2)P(=O)(O)O)c(=O)[nH]1 (stereo not drawn)	> 100	> 100	> 100	> 100	> 100	> 100	> 100	> 100		> 100									
C=C(C)COC(=O)COCC(=O)OCC(=C)C	> 100	> 100	> 100	> 100		> 100	> 100	> 100	> 100	> 100									
COc1cc2c(cc1O)N=C[C@@H]1CCC(O)N1C2=O (mixture of isomers)	0.928	71.6	34	72.9	0.974	18.8	0.638	6.96		7.65									
Cc1nc2c(s/c(=N\N)n2-c2ccccc2)c(=O)n1C	> 100	> 100	> 100	> 100	> 100	> 100	> 100	> 100		> 100									
